Assay results reported in article PMC10485906, “Development of a Dihydroquinoline–Pyrazoline GluN2C/2D-Selective Negative Allosteric Modulator of the N-Methyl-D-aspartate Receptor” (ACS Chemical Neuroscience, 2023).
Values belong to the compound of their own block, whether it stands above or below them.

What was measured:
GluN1/GluN2D = GluN1/GluN2D (Rattus norvegicus, UniProt Q62645); parameters: GluN2B (NM_012574.1), GluN2C (NM_012575.3), and GluN2D (NM_022797.2) were provided by; expressed in transfected cells; host or cells: Xenopus laevis oocytes (cRNA injection); settings: cited from earlier work
Sequence of GluN1/GluN2D (Q62645 28-1323, other chains not shown): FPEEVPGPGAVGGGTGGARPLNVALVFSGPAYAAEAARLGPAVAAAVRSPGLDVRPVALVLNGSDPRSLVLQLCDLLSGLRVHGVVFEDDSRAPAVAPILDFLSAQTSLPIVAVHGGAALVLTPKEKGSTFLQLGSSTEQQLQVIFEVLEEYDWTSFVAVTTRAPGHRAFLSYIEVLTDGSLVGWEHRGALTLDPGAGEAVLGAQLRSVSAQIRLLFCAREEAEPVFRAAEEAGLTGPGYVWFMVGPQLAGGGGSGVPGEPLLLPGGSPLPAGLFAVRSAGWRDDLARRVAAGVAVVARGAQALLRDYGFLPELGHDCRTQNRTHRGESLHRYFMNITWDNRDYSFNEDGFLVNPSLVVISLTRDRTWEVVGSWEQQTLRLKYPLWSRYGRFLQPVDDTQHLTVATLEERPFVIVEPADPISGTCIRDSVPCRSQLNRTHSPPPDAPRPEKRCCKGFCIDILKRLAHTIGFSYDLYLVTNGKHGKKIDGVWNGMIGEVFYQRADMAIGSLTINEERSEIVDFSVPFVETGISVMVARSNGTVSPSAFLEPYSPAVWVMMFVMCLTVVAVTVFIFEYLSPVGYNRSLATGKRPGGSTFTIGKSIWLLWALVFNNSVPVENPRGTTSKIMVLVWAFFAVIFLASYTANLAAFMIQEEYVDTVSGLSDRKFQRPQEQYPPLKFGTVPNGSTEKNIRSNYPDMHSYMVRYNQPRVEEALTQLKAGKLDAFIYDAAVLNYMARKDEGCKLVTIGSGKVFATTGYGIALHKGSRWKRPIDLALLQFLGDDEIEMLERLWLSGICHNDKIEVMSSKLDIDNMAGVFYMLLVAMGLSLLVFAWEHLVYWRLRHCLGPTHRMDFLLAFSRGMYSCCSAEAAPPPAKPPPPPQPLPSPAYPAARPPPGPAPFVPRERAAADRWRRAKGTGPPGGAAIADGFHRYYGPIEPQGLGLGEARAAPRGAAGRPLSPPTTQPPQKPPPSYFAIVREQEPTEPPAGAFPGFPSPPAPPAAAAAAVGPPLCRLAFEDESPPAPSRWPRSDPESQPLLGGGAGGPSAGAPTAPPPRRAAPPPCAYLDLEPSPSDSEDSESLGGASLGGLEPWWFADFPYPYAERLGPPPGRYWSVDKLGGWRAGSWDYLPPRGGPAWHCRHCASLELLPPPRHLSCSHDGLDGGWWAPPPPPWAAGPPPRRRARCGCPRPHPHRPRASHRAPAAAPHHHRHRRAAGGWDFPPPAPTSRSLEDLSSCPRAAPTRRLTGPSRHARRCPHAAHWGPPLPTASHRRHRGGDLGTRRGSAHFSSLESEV

GluN1/GluN2A = biological target: T1, GluN1/GluN2A (Rattus norvegicus, UniProt Q00959); parameters: method as in PMID 23909910; settings: reproduced for comparison; cited from earlier work
T1 construct: expressed in transfected cells; host or cells: Xenopus laevis oocytes (cRNA injection)

Tsc1^± mice = experiment: Acute epileptic mouse model, EEG recordings of seizures; format: in vivo
Protocol: All experiments were conducted in agreement with the requirements of the European Directive 2010/63/EU. Mice were housed in ventilated, light-tight, sound-isolated chambers under a standard 12:12 light/dark cycle (light on at […]) with food and water available ad libitum. C57BL/6J wild-type (Tsc1^+/+) females from Janvier Laboratories (France) were crossed with heterozygote Tsc1^± male mice with the genetic background B6;129S4-Tsc1^tm1.1Djk/Nci. The genotyping of pups issuing from this cross-breeding was performed on tail tissue samples at postnatal day P9. The study was conducted in Tsc1^± male mice at P14–16. Pups from at least three deliveries for each condition were studied to minimize the potential sampling bias.
The DQP derivative 2i was diluted in DMSO at a concentration of 100 mM before being added to 100 to 150 μL of saline solution and intraperitoneally injected in mice. Intraperitoneal injection was administered during the EEG recordings at three different concentrations: 7, 14, and 28 mg/kg to estimate the dose–response relationship.
Experiments were performed on postnatal days of P14 and P16 male Tsc1^± mice. Surgery was performed under isoflurane anesthesia and lidocaine analgesia. During recordings, the head was fixed to the frame of a stereotaxic apparatus by attached bars; animals were surrounded by a cotton nest and heated via a thermal pad (36.6–37.7 °C). A silver chloride reference electrode was placed in the cerebellum. EEG recordings were performed with nonanaesthetized head-restrained Tsc1^± mice. […] Recordings were analyzed offline using Clampfit (Molecular Devices, San Jose) and Origin (MicroCal, Northampton, MA) software. […] During EEG recordings, animals were monitored visually to determine the behavioral correlates of each electrographic epileptic discharge. […]

hGluN1-FA,TL/hGluN3A = hGluN1-FA,TL/hGluN3A (Homo sapiens, UniProt Q05586+Q8TCU5, F484A/T518L); experiment: Off-target, oocytes, GluN1/GluN3A; format: cell-based; settings: 1 µM compound; 100 µM glycine
Sequence of hGluN1-FA,TL/hGluN3A (Q8TCU5 24-1115, other chains not shown): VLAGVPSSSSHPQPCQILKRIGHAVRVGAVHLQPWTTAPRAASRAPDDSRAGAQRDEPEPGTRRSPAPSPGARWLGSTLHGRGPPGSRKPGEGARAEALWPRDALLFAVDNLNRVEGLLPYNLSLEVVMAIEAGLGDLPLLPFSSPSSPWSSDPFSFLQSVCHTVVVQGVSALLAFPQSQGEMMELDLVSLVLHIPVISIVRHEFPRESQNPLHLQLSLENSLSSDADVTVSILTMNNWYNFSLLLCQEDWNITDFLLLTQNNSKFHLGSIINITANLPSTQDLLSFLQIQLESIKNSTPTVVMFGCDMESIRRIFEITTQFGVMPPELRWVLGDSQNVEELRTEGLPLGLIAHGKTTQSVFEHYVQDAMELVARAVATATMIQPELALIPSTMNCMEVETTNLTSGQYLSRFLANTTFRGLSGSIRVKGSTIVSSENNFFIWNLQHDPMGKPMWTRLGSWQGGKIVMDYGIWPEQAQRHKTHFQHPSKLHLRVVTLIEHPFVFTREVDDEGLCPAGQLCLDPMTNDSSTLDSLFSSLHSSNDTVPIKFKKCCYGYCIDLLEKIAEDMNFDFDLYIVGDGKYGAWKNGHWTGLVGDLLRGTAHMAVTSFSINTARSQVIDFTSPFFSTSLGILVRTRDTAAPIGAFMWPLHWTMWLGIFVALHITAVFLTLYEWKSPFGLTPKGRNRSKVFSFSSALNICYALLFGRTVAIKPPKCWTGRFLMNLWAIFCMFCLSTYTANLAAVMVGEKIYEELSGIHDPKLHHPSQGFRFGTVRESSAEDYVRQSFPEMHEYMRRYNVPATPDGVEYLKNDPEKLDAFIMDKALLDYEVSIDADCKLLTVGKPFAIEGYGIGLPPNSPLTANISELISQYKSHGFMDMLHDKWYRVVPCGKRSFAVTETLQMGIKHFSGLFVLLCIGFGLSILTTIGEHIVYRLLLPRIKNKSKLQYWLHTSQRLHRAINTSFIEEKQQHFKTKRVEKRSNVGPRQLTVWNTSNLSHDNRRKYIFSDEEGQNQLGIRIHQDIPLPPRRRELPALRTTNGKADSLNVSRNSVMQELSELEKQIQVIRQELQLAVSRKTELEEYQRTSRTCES
Protocol: (§1) Analysis of Off-target Actions
(§2) Compound (S)-(-)-2i was tested at 1 µM for actions at glycine-activated GluN1/GluN3A (human GluN1-F484A,T518L/GluN3A referred to a GluN1-FA,TL/GluN3A) and rat GluN1-4a/GluN3B in the presence of 0.5 µM CGP-78608. cRNA injection ratios for GluN1/GluN3 were 1:2. Compound (S)-(-)- 2i was also tested for actions at AMPA (rat GluA1, rat GluA2, human GluA3-L531Y), kainate (rat GluK2), nicotinic acetylcholine (rat α7 and α4β2, cRNA ratio 1:1), GABAA (rat α1β2γ2S, cRNA ratio 1:1:1), GABAC (rat ρ1), glycine (rat α1), and purinergic (human P2X) receptors expressed in Xenopus oocytes. cRNA encoding the receptor subunits was synthesized from linear template cDNA using the mMessage mMachine kit (Ambion). Oocytes were injected with 1-5 ng cRNA in a 50 nL volume and incubated in Barth's solution at 15°C for 2-5 days prior to recording. GluK2-expressing oocyte were incubated in 1 mg/ml (10 µM) concanavalin-A for 10 min prior to recording. The cDNAs encoding GABAC and glycine subunits were provided by Dr. D. Weiss (University of Texas Health Science Center at San Antonio). cDNAs encoding nicotinic acetylcholine receptor subunits were provided by Drs. […]
(§3) GABA. […] Responses in presence of test compound were expressed as a percent of control. […]

42-nACh = 42-nACh (Rattus norvegicus, UniProt P09483+P12390); experiment: Off-target, oocytes, nicotinic acetylcholine 42; format: cell-based; settings: 1 µM compound; 10 µM acetylcholine
Sequence of 42-nACh (P09483 31-630): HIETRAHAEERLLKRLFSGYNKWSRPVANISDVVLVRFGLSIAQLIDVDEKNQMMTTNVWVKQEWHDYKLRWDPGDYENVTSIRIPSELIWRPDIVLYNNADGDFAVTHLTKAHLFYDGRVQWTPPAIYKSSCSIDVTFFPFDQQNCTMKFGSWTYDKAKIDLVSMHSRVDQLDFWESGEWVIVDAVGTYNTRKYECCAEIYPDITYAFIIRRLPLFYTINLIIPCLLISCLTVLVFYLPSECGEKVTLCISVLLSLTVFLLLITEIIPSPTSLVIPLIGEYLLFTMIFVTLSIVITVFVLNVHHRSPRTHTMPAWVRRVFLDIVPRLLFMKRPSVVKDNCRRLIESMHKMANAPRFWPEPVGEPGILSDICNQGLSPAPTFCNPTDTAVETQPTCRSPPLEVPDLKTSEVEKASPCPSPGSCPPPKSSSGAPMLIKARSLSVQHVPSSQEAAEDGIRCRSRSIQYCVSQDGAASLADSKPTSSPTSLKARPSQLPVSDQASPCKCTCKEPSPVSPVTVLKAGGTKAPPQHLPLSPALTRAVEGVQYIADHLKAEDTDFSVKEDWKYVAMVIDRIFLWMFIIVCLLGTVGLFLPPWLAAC
Sequence of 42-nACh (P12390 25-500): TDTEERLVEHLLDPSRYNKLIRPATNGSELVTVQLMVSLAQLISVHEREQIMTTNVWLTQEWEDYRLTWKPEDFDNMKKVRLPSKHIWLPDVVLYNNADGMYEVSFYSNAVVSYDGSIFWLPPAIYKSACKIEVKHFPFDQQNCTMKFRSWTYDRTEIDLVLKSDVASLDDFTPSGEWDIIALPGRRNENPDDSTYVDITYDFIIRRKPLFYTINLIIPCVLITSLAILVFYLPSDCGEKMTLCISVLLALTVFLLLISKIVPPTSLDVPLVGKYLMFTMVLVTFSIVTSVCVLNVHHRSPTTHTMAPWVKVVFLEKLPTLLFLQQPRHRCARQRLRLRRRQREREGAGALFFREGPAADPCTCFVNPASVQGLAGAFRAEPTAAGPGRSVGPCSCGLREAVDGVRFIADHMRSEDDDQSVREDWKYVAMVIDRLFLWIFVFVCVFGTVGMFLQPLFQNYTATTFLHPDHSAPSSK
Protocol: as §1, §2, §3

-GABAC = biological target: T2, -GABAC (Rattus norvegicus, UniProt P50572); experiment: Off-target, oocytes, GABAC; format: cell-based; settings: 1 µM compound; 100 µM GABA
T2 construct: expressed in transfected cells; host or cells: Xenopus oocytes (cRNA injection)
T2 sequence (P50572 22-480): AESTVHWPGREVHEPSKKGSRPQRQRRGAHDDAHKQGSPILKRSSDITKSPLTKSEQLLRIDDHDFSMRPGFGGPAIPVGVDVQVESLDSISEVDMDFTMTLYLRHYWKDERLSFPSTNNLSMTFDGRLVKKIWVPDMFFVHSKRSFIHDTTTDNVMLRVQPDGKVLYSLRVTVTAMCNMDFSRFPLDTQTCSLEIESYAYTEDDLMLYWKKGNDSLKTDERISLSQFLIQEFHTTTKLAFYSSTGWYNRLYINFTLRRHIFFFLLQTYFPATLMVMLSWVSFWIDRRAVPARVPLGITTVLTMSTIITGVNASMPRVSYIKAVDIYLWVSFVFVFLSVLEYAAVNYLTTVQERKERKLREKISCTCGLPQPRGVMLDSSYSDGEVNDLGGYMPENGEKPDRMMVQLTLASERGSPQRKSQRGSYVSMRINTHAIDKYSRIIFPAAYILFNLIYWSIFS
Protocol: as §1, §2, §3

SMILES: O=C(O)CCC(=O)N1N=C(c2c(-c3ccc(Cl)cc3)c3ccccc3[nH]c2=O)CC1c1ccc(Cl)cc1 (stereo not shown) [2a]
- I 30 μM / I control GluN2D (GluN1/GluN2D; 30 μM, reproduced for comparison): 2.0 ± 1.0 (2,5) %
- Selectivity 2A IC50 / 2D IC50 (GluN1/GluN2D; GluN2D over GluN2A): 48 fold
- Selectivity 2B IC50 / 2D IC50 (GluN1/GluN2D; GluN2D over GluN2B): 50 fold
- I 30 μM / I control GluN2A (GluN1/GluN2A): 37 ± 4.6 (2,10) %

SMILES: O=C(O)CC(F)(F)C(=O)N1N=C(c2c(-c3ccc(Cl)cc3)c3ccccc3[nH]c2=O)CC1c1ccc(Cl)cc1 (stereo not shown) [2i]
- effect on spontaneous electrographic seizures (Tsc1^± mice; 14 mg/kg IP, male Tsc1^± mice P14–16, neocortical layers 2/3 and 4): significantly reduced spontaneous electrographic seizures
- effect on epileptic events (Tsc1^± mice; 28 mg/kg IP, male Tsc1^± mice P14–16): epileptic events stopped immediately
- effect on number of epileptic events (Tsc1^± mice; murine model of TSC-induced epilepsy, abstract): significantly reduced the number of epileptic events

- % control hGluN1-FA,TL/hGluN3A (hGluN1-FA,TL/hGluN3A): 95 ± 2.3%
- % control 42-nACh (42-nACh): 91 ± 2.1%
- % control -GABAC (-GABAC): 96 ± 1.2%
SMILES: O=C(O)CC(F)(F)C(=O)N1N=C(c2c(-c3ccc(Cl)cc3)c3ccccc3[nH]c2=O)C[C@H]1c1ccc(Cl)cc1 [(S)-(−)-2i]
